Measured values reported in paper PMC6934949, “Calixmexitil: Calixarene-based Cluster of Mexiletine with Amplified Anti-myotonic Activity as A Novel Use-dependent Sodium Channel Blocker” (Iranian Journal of Pharmaceutical Research : IJPR, 2019).

System: T1, sodium channel (voltage-gated, skeletal muscle)
T1 construct: gene scn4a; native channel in single semitendinosus muscle fibers
Assay: three vaseline gap voltage clamp of Na+ current, phasic ([…] Hz use-dependent) block
Format: cell-based
Conditions: read-out: Phasic block IC 50

| IC50 [µM] | Structure (SMILES) |
| --- | --- |
| 31 | Cc1cccc(C)c1OCC(C)N (racemic) [Mexiletine, 1-(2,6-dimethylphenoxy)-2-propanamine] |
| 3 | CC(N)COc1c2cccc1Cc1cccc(c1OCC(C)N)Cc1cccc(c1OCC(C)N)Cc1cccc(c1OCC(C)N)C2 (centres unmarked) [compound 4, Calixmexitil] |
